Measurements as given in ChEMBL document CHEMBL3632589, “Investigation of 7-benzylidenenaltrexone derivatives as a novel structural antitrichomonal lead compound” (2015).
≈ marks a conversion by molar mass, not a printed value.

The molecules below were run on Trichomonas vaginalis (assay: Antitrichomonal activity against Trichomonas vaginalis after 48 hrs by invert microscope analysis).
Format: functional

Compound	MIC [µM]
O=C1/C(=C/c2ccc(F)cc2)C[C@@]2(O)[C@H]3Cc4ccc(O)c5c4[C@@]2(CCN3CC2CC2)[C@H]1O5	40 (≈ 17.9 µg/mL)
CN(C)c1ccc(/C=C2\C[C@@]3(O)[C@H]4Cc5ccc(O)c6c5[C@@]3(CCN4CC3CC3)[C@@H](O6)C2=O)cc1	20 (≈ 9.45 µg/mL)
O=C1/C(=C/c2ccccc2)C[C@@]2(O)[C@H]3Cc4ccc(O)c5c4[C@@]2(CCN3CC2CC2)[C@H]1O5 [BNTX]	40 (≈ 17.2 µg/mL)
Oc1ccc2c3c1O[C@H]1c4[nH]c5ccccc5c4C[C@@]4(O)[C@@H](C2)N(CC2CC2)CC[C@]314 [NALTRINDOLE]	80 (≈ 33.2 µg/mL)
CC(C)[C@H](NC(=O)[C@H](CCC(=O)O)NC(=O)[C@H](Cc1ccccc1)NC(=O)[C@@H](C)NC(=O)[C@@H](N)Cc1ccc(O)cc1)C(=O)N[C@H](C(=O)NCC(N)=O)C(C)C [DELTORPHIN II]	> 320
Cc1ncc([N+](=O)[O-])n1CCO [METRONIDAZOLE]	5 (≈ 0.856 µg/mL)
C=CCN1C[C@H](C)N([C@H](c2ccc(C(=O)N(CC)CC)cc2)c2cccc(OC)c2)C[C@H]1C [SNC-80]	> 320
CC1(C)SSC(C)(C)[C@@H](NC(=O)[C@@H](N)Cc2ccc(O)cc2)C(=O)NCC(=O)N[C@@H](Cc2ccccc2)C(=O)N[C@H]1C(=O)O	> 320
COc1ccc(/C=C2\C[C@@]3(O)[C@H]4Cc5ccc(O)c6c5[C@@]3(CCN4CC3CC3)[C@@H](O6)C2=O)cc1	20 (≈ 9.19 µg/mL)
